Tests used:
[1] = target: T1, Aldehyde dehydrogenase 1, mitochondrial (Saccharomyces cerevisiae, UniProt P22281); assay: Inhibition of yeast aldehyde dehydrogenase by spectrophotometry following NADH formation at 340 nm
T1 sequence (P22281 whole entry): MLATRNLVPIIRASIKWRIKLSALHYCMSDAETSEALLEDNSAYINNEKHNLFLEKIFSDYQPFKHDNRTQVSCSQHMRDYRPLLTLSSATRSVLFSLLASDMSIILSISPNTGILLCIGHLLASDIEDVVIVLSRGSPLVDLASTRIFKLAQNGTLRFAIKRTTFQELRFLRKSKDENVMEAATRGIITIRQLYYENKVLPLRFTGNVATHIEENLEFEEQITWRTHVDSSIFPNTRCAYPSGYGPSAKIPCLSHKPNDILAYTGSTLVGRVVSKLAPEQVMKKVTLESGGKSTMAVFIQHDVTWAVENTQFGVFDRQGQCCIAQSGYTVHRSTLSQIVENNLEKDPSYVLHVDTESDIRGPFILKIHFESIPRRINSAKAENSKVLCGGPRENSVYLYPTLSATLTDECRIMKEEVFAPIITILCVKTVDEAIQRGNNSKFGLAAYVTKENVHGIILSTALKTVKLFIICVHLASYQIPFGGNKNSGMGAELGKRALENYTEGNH

[2] = target: T2, Aldehyde dehydrogenase 1, mitochondrial (Saccharomyces cerevisiae) (UniProt P22281); assay: Inhibition of yeast aldehyde dehydrogenase at 0.5 mM by spectrophotometry following NADH formation at 340 nm
T2 sequence (whole entry): T1 sequence (P22281 whole entry)

| SMILES | IC50 [1] | inhibition [2] |
| --- | --- | --- |
| CCCCCCCC/C=C/C(=O)CCCCCCC(=O)O | 280 µM | – |
| CCCCCC/C=C/C(=O)CCCCCCC(=O)OCC | 170 µM | – |
| CCCCCCCC/C=C/C(=O)CCCCCCC(=O)OCC | 430 µM | – |
| CCCCCC(=O)/C=C/C=C/CCCCCCCC(=O)OCC(O)CO (stereo not given) | – | < 50% |
| CCCCC/C=C/C=C/C(=O)CCCCCCCC(=O)O | – | < 50% |

Reference: ChEMBL document CHEMBL1150143, “Aldehyde dehydrogenase inhibitors from the mushroom Clitocybe clavipes” (J Nat Prod, 2002)
